Ends that are not written are not given here. Peptide text beside a SMILES is read from it. * marks the point of attachment. Biotin = O=C1N[C@H]2[C@H](CS[C@H]2CCCCC(=O)*)N1
Key:
Assay type in all cases: binding
[1] = target: T1, PDZ protein (GST-PDZ fusion) (Homo sapiens, UniProt Q14168); assay: G' assay (10 uM PL peptide), results of TABLE 7 and TABLE 12; conditions: PDZ MPP2, PDZ Domain 1
T1 construct: made in house; host or cells: E. coli (DH5alpha, BL21 or JM109)
T1 sequence (Q14168 1-576): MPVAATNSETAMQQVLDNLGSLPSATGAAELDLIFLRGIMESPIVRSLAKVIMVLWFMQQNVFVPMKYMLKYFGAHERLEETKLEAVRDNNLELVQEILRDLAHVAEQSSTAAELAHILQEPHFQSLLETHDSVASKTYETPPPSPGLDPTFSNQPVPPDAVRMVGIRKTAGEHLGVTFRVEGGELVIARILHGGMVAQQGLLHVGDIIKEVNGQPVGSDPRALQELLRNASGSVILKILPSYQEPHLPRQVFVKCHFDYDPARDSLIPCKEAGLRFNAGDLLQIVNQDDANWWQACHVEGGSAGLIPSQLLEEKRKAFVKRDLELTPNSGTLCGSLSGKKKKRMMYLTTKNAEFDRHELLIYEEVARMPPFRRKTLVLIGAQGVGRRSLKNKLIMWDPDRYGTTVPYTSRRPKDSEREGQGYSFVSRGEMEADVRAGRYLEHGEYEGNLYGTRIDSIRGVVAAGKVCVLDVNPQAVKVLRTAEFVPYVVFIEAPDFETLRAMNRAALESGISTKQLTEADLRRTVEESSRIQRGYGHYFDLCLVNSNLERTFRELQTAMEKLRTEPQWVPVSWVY
Summary of the method: (§1)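 Binding classes derive from A450 nm of bound biotin-tagged PL peptide. A score of 5 needs A450 above 4 in more than two repeats.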

[2] = target: T2, PDZ protein (GST-PDZ fusion) (Homo sapiens, UniProt Q9BXL6); assay: as above; conditions: PDZ CARD14, PDZ Domain 1
T2 construct: made in house; host or cells: E. coli (DH5alpha, BL21 or JM109)
T2 sequence (Q9BXL6 1-1004): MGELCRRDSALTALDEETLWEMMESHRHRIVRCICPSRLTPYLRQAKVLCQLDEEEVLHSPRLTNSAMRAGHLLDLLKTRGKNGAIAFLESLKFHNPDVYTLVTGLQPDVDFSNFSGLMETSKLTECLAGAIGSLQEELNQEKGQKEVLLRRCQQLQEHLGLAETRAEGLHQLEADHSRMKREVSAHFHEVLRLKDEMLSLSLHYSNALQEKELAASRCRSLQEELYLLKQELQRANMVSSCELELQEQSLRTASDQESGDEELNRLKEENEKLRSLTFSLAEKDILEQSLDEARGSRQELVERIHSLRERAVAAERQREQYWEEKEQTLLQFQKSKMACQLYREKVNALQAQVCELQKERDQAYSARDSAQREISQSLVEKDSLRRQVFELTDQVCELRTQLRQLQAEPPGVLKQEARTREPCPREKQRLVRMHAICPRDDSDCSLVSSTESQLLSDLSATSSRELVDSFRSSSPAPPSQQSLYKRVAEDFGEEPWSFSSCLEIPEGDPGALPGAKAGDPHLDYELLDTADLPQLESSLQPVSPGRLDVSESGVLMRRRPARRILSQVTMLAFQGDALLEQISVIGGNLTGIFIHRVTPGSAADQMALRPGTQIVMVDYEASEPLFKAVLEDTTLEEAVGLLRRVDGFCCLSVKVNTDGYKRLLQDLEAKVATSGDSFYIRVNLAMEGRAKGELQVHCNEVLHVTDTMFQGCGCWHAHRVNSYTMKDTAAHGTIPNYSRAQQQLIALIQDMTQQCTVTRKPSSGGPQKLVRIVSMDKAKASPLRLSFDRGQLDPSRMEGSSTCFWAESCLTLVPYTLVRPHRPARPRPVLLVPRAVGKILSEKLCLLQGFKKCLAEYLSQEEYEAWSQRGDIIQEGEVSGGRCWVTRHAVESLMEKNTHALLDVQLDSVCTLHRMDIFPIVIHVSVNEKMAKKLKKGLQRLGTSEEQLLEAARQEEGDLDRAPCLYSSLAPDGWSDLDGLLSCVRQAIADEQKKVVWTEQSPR
Summary of the method: as §1

[3] = tested on: PDZ protein (GST-PDZ fusion); assay: as above; conditions: PDZ HEMBA 1003117, PDZ Domain 1
Summary of the method: as §1

[4] = target: T3, PDZ protein (GST-PDZ fusion) (Homo sapiens, UniProt O14745); assay: as above
T3 construct: made in house; host or cells: E. coli (DH5alpha, BL21 or JM109)
T3 sequence (O14745 1-358): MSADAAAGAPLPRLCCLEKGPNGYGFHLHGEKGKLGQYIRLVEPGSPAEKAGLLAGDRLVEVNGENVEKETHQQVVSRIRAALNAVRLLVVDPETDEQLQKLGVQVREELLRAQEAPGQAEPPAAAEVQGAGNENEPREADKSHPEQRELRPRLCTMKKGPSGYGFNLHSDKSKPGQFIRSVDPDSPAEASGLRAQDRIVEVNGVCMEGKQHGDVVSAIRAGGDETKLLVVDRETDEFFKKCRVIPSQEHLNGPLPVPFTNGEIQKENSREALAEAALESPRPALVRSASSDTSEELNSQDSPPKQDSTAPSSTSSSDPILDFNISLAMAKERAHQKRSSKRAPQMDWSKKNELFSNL
Summary of the method: as §1

[5] = target: T4, PDZ protein (GST-PDZ fusion) (Homo sapiens, UniProt Q5T2W1); assay: as above; conditions: PDZ PDZK-1, PDZ Domain 2
T4 construct: made in house; host or cells: E. coli (DH5alpha, BL21 or JM109)
T4 sequence (Q5T2W1 1-519): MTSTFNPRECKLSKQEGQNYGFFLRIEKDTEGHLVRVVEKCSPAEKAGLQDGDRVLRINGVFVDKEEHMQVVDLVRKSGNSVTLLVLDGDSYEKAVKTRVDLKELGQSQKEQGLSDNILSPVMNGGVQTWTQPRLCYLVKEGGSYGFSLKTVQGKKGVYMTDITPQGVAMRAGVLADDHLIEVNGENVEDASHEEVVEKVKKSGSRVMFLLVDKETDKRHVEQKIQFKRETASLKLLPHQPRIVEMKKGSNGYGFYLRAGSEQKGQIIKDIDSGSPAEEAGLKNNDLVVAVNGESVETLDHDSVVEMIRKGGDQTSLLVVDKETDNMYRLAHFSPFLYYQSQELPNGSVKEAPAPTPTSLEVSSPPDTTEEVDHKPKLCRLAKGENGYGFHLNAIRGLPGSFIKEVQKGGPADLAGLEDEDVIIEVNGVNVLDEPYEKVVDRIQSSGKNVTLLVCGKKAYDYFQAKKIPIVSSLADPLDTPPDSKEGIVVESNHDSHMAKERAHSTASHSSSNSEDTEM
Summary of the method: as §1

[6] = target: T5, PDZ protein (GST-PDZ fusion) (Homo sapiens, UniProt Q9BYB0); assay: as above; conditions: PDZ SHANK3, PDZ Domain 1
T5 construct: made in house; host or cells: E. coli (DH5alpha, BL21 or JM109)
T5 sequence (Q9BYB0 whole entry, the tested form may be a part): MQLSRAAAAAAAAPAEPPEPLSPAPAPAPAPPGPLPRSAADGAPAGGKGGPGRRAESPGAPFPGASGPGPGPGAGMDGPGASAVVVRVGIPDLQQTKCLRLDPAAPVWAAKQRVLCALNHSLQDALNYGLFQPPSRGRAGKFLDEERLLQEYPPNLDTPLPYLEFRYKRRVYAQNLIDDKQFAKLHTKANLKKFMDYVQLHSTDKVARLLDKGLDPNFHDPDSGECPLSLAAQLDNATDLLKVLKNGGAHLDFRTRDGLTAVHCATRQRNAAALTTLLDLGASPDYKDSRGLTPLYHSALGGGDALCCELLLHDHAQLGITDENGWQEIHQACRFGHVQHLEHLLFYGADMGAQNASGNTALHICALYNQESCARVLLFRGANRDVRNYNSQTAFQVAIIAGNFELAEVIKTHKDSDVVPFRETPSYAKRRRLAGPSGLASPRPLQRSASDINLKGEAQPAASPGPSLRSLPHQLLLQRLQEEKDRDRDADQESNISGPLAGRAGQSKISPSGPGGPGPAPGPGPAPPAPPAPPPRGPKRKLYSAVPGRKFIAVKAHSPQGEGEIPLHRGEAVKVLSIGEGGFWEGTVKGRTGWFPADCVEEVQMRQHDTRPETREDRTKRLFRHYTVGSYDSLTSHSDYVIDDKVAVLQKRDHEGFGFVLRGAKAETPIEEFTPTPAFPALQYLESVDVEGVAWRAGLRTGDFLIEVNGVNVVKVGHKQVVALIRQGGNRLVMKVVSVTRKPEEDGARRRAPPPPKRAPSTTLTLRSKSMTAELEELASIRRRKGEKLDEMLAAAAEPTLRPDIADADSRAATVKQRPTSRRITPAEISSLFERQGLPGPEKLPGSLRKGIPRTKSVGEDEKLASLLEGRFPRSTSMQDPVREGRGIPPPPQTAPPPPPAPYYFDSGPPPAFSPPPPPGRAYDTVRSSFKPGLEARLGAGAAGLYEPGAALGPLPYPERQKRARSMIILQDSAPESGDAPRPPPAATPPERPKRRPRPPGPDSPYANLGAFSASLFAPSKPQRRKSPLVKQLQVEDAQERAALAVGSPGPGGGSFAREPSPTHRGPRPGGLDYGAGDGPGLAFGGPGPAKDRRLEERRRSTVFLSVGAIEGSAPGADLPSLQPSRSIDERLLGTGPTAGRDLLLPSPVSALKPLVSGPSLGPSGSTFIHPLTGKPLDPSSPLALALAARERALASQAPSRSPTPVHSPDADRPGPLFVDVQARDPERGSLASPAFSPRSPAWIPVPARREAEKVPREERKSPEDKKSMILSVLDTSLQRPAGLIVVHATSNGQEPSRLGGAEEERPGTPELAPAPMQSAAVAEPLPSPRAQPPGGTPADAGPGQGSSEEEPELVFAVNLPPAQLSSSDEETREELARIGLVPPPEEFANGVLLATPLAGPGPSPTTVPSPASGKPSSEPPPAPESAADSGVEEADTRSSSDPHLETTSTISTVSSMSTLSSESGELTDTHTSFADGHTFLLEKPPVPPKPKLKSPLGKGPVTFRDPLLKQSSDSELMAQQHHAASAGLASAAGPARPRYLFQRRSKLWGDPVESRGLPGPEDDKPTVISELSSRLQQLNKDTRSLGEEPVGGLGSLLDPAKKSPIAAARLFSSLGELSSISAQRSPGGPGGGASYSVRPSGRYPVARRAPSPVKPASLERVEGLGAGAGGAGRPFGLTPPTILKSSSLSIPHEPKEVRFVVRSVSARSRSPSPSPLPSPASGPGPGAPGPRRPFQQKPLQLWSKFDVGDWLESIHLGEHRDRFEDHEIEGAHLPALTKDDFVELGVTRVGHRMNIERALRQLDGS
Summary of the method: as §1

[7] = target: T6, PDZ protein (GST-PDZ fusion) (Homo sapiens, UniProt Q9Y566); assay: as above; conditions: PDZ SHANK1, PDZ Domain 1
T6 construct: made in house; host or cells: E. coli (DH5alpha, BL21 or JM109)
T6 sequence (Q9Y566 whole entry, the tested form may be a part): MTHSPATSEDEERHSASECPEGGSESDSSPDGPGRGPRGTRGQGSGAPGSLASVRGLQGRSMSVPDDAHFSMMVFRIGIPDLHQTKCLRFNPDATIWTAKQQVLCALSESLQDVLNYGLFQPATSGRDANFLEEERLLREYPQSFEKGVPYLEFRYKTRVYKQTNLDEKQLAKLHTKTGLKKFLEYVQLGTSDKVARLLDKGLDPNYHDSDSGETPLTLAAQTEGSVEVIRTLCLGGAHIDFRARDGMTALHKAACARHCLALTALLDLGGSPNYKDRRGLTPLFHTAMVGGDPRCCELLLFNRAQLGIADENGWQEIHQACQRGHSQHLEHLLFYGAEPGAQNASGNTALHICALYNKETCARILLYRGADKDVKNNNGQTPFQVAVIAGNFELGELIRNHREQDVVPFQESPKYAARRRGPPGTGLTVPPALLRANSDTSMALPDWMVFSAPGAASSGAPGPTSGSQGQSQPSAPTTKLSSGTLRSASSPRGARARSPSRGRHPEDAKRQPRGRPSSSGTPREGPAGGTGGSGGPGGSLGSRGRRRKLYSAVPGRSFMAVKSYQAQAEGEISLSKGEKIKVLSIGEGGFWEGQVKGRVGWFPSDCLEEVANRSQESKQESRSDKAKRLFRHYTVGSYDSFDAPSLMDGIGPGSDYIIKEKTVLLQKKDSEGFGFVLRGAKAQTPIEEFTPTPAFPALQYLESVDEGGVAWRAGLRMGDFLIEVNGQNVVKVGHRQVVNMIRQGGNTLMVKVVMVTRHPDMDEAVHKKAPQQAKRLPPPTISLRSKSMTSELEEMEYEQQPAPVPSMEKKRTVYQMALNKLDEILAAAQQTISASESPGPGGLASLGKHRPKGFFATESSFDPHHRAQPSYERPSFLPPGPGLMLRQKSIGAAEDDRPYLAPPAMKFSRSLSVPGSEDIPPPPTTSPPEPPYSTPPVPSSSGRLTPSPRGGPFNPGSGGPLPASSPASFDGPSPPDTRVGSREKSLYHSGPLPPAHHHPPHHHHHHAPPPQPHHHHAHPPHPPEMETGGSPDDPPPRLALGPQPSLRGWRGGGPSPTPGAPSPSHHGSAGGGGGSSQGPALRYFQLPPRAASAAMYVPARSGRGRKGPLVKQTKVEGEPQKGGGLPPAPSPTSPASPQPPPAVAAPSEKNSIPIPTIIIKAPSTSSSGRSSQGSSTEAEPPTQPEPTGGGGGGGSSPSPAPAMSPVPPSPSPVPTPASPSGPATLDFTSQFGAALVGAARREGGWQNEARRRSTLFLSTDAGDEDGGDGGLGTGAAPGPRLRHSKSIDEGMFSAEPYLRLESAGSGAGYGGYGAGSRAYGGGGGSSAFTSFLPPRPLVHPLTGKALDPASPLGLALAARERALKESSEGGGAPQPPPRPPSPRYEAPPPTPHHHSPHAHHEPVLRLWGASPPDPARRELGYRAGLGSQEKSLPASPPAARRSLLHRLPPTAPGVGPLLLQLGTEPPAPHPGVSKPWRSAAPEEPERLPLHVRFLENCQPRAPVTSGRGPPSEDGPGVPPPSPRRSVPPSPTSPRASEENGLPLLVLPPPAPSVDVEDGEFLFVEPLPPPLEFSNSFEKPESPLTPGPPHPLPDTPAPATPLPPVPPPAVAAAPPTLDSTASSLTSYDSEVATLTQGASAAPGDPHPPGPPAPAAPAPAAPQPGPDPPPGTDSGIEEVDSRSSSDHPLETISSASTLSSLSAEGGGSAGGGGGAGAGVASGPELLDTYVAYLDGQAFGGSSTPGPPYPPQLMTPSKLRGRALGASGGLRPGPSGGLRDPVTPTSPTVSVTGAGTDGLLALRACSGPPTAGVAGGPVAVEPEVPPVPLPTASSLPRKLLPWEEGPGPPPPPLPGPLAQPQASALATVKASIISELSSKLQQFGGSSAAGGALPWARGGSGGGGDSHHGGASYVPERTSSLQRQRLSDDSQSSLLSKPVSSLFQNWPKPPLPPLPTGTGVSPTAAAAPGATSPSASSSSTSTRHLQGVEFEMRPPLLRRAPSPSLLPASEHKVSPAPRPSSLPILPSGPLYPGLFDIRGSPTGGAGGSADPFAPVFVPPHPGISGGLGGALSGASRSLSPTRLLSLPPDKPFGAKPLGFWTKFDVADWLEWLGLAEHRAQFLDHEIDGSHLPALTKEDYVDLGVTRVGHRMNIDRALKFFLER
Summary of the method: as §1

[8] = target: T7, PDZ-domain polypeptide (GST/PDZ fusion protein) (Homo sapiens, UniProt Q5T2W1); assay: Apparent affinity (Kd) by titration of PL peptide in the G assay; conditions: Peptide Optimal Conc (Kd by titration of the PL peptide), PDZ PDZK-1, PDZ Domain 2
T7 construct: made in house; host or cells: E. coli (DH5alpha, BL21 or JM109)
Experimental: (§2) The third column labeled “Peptide Optimal Concentration” in the tables is a number reflective of the binding interaction between the PL protein and PDZ protein. […] The column labeled “Protein Optimal Concentration” refers to the protein concentration used to assay PL interaction (in ug/ml); a ‘0’ is indicative of 5 ug/ml protein concentration; any other value represents the concentration (in ug/ml) used to determine the dissociation constant for a given interaction.
The “A” and “G” assays described supra can be used to determine the “apparent affinity” of binding of a PDZ ligand peptide to a PDZ-domain polypeptide. Apparent affinity is determined based on the concentration of one molecule required to saturate the binding of a second molecule (e.g., the binding of a ligand to a receptor). Two particularly useful approaches for quantitation of apparent affinity of PDZ-ligand binding are provided infra.
In cases where satisfying the above criteria proves difficult, an alternative approach (infra) can be used.
(1) A fixed concentration of a PDZ-domain polypeptide and increasing concentrations of a labeled PL peptide (labeled with, for example, biotin or fluorescein, see TABLE 9 for representative peptide amino acid sequences) are mixed together in solution and allowed to react. In certain assays, peptide concentrations are 0.1 uM, 1 uM, 10 uM, 100 uM, 1 mM. In other assays, appropriate reaction times can range from 10 minutes to 2 days at temperatures ranging from 4° C. to 37° C. In some instances, the identical reaction can also be carried out using a non-PDZ domain-containing protein as a control (e.g., if the PDZ-domain polypeptide is fusion protein, the fusion partner can be used).
(2) PDZ-ligand complexes can be separated from unbound labeled peptide using a variety of methods known in the art.
(3) The PDZ-ligand complex is detected based on presence of the label on the peptide ligand using a variety of methods and detectors known to one of skill in the art. For example, if the label is fluorescein and the separation is achieved using HPSEC, an in-line fluorescence detector can be used. The binding can also be detected as described supra for the G assay.

KIAA0561 (PDZ Domain 1) = target: T8, KIAA0561 (PDZ Domain 1) (Homo sapiens, UniProt O60307); assay: G' assay, TABLE 12; conditions: A450 nm class of biotinylated PL peptide bound; 0 in conc columns = peptide 10 uM, protein 5 ug/ml
T8 construct: made in house; host or cells: E. coli (DH5alpha, BL21 or JM109)
T8 sequence (O60307 with tags, fused parts or gaps): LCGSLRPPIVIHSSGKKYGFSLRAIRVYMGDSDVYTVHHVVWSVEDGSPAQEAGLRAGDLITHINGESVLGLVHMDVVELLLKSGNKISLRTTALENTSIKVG
Experimental: as §2
(§3) Finally, the seventh column labeled “Classification” is another measure of the level of binding. In particular, it provides an absorbance value at 450 nm which indicates the amount of PL peptide bound to the PDZ protein. The following numerical values have the following meanings: ‘1’—A450 nm 0-1; ‘2’—A450 nm 1-2; ‘3’—A450 nm 2-3; ‘4’—A450 nm 3-4; ‘5’—A450 nm of 4 more than 2× repeated; ‘0’—A450 nm 0, i.e., not found to interact. Thus, higher numbers indicate stronger interactions.
(§4) For convenience, the assay conditions described in this section are referred to as the “G′ assay” and the “G″ assay,” with the specific conditions described in the preceding section on G assays being referred to as the “G^0 assay.” The “G′ assay” is identical to the “G^0 assay” except at step (2) the peptide concentration is 10 uM instead of 20 uM. […] Correspondingly, it slightly increases the certainty that detected interactions are of sufficient affinity and half-life to be of biological importance and useful therapeutic targets.

KIAA807 = target: T9, KIAA807 (Homo sapiens, UniProt Q6P0Q8); assay: G' assay, TABLE 12; conditions: A450 nm class of biotinylated PL peptide bound; 0 in conc columns = peptide 10 uM, protein 5 ug/ml
T9 construct: made in house; host or cells: E. coli (DH5alpha, BL21 or JM109)
T9 sequence (Q6P0Q8 1104-1192 limits assumed): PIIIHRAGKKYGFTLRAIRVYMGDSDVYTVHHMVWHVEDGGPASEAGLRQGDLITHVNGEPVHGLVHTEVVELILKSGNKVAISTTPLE
Experimental: as §2, §3, §4

[9] = target: T10, PDZK1 (PDZ Domain 2, 3, 4) (Homo sapiens, UniProt Q5T2W1); assay: G' assay, TABLE 12; conditions: A450 nm class of biotinylated PL peptide bound; 0 in conc columns = peptide 10 uM, protein 5 ug/ml
T10 construct: When more than one PDZ domain was cloned, the DNA portion cloned represents the PDZ domains and the cDNA portion located between individual domains; made in house; host or cells: E. coli (DH5alpha, BL21 or JM109)
Experimental: as §2, §3, §4

[10] = target: T11, KIAA0807(S) (PDZ Domain 1) (Homo sapiens, UniProt Q6P0Q8); assay: G' assay and Kd titration, TABLE 12
T11 construct: made in house; host or cells: E. coli (DH5alpha, BL21 or JM109)
T11 sequence (Q6P0Q8 with tags, fused parts or gaps): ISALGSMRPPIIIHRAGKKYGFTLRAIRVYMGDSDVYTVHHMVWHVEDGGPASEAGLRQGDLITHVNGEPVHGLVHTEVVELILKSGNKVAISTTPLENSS
Experimental: as §2, §3
For convenience, the assay conditions described in this section are referred to as the “G′ assay” and the “G″ assay,” with the specific conditions described in the preceding section on G assays being referred to as the “G^0 assay.” The “G′ assay” is identical to the “G^0 assay” except at step (2) the peptide concentration is 10 uM instead of 20 uM.

Classification [1]	Classification [2]	Compound	Classification [3]	Classification ([4]; PDZ EBP50, PDZ Domain 1)	Classification ([4]; PDZ EBP50, PDZ Domain 2)	Classification [5]	Classification [6]	Classification [7]	Kd [8]	Classification (KIAA0561 (PDZ Domain 1))	Classification (KIAA807)	Classification [9]	Kd [10]	Classification ([10]; A450 nm class of biotinylated PL peptide bound, 0 in conc columns = peptide 10 uM, protein 5 ug/ml)
2 (A450 nm 1-2)	2 (A450 nm 1-2)	5-HT 3A (serotonin receptor 3A) (Biotin-LAVLAYSITLVMLWSIWQYA)	2 (A450 nm 1-2)	–	–	–	–	–	–	–	–	–	–	–
–	–	CC(C)C[C@H](NC(=O)[C@H](CO)NC(=O)[C@H](CO)NC(=O)[C@H](CCCNC(=N)N)NC(=O)[C@H](CCCNC(=N)N)NC(=O)[C@H](Cc1c[nH]c2ccccc12)NC(=O)[C@H](CO)NC(=O)[C@@H]1CCCN1C(=O)CCCC[C@@H]1SC[C@@H]2NC(=O)N[C@@H]21)C(=O)N[C@@H](CO)C(=O)N[C@@H](CCC(=O)O)C(=O)N[C@@H](CO)C(=O)N[C@@H](CCC(=O)O)C(=O)N[C@@H](CC(N)=O)C(=O)N[C@@H](C)C(=O)N[C@H](C(=O)N[C@@H](CO)C(=O)N[C@@H](CC(C)C)C(=O)N[C@H](C(=O)N[C@H](C(=O)N[C@@H](Cc1ccccc1)C(=O)O)[C@@H](C)O)[C@@H](C)O)[C@@H](C)O [BLR-1] (Biotin-PSWRRSSLSESENATSLTTF-OH; C-terminus assumed)	–	3 (A450 nm 2-3)	3 (A450 nm 2-3)	1 (A450 nm 0-1)	3 (A450 nm 2-3)	3 (A450 nm 2-3)	2 µM	1 (A450 nm 0-1)	2 (A450 nm 1-2)	1 (A450 nm 0-1)	1 µM	2 (A450 nm 1-2)

Source: patent US20050282743A1, “Molecular interactions in cells” (Arbor Vita Corporation, priority 2001, published 2005)
